Measured values published in ChEMBL document CHEMBL1148343, “Fragment-based drug discovery” (J Med Chem, 2004).

Key:
[1] = biological target: Matrix metalloproteinase-9 (Homo sapiens) (UniProt P14780); experiment: Inhibition of gelatinase B, matrix metalloprotease-9 (MMP-9) at 5000 uM
[2] = biological target: DNA topoisomerase 2-beta (Homo sapiens) (UniProt Q02880); experiment: (§1) Maximal non-effective concentration against bacterial DNA gyrase
Nucleic Acid = experiment: as §1; format: nucleic-acid assay

Sequence of DNA topoisomerase 2-beta (Homo sapiens) (Q02880 whole entry): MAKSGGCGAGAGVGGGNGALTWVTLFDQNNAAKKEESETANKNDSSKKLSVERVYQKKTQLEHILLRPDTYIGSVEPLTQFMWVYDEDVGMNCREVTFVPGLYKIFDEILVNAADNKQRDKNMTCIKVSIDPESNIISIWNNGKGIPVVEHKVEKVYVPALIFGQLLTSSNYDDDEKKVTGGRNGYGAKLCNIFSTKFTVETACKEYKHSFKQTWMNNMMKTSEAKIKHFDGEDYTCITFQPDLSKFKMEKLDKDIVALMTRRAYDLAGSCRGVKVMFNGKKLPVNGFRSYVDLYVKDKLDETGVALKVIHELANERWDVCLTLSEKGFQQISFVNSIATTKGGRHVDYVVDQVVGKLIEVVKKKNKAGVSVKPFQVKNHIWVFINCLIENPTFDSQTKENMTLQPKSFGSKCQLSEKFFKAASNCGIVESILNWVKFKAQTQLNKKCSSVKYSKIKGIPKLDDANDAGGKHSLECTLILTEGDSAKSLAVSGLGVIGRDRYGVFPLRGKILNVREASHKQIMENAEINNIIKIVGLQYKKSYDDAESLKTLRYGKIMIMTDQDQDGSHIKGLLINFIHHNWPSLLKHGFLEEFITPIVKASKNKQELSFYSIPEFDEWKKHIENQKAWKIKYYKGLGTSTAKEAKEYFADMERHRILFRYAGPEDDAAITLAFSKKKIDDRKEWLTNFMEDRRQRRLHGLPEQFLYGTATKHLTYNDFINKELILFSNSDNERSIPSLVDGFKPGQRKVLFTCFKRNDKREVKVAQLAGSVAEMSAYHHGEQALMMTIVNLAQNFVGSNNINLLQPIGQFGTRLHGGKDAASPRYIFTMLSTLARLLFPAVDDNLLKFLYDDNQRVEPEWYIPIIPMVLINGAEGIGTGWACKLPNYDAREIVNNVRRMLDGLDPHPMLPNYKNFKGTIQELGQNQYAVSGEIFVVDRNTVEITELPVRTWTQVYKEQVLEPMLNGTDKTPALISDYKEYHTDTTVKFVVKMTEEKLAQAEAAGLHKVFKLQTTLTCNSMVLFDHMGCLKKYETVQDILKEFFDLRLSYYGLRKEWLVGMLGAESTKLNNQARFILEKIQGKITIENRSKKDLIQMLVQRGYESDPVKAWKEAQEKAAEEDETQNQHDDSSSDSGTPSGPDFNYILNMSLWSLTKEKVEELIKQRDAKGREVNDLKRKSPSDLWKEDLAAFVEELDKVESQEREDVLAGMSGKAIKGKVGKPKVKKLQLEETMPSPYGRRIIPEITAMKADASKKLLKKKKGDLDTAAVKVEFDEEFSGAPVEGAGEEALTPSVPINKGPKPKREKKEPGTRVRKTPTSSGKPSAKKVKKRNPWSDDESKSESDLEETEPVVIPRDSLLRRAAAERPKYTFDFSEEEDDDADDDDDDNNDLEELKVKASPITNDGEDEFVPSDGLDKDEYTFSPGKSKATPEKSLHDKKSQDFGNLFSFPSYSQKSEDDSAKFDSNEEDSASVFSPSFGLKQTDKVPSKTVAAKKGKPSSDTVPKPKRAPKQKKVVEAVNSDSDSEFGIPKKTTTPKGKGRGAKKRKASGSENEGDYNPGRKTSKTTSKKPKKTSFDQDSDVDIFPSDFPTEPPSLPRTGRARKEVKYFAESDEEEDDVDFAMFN
Sequence of Matrix metalloproteinase-9 (Homo sapiens) (P14780 whole entry): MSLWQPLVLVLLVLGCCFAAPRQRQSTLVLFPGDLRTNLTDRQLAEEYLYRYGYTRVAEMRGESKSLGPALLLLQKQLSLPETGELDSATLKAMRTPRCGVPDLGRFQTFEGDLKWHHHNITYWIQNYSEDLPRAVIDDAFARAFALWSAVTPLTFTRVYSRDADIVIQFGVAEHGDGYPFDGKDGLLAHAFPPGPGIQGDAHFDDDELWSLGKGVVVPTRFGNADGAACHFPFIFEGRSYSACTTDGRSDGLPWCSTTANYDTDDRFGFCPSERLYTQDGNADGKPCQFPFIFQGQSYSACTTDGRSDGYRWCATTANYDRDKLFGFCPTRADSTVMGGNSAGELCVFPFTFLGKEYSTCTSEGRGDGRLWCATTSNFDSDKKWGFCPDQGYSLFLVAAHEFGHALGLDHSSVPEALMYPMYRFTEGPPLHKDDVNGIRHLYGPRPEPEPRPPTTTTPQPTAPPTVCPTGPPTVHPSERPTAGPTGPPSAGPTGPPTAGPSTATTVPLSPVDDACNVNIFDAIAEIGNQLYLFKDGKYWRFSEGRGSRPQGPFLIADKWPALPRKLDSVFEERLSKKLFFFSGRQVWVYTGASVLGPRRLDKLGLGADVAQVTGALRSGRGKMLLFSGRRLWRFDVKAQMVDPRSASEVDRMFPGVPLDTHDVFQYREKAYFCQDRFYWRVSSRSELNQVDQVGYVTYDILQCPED

NCc1nc2ccccc2[nH]1
inhibition [1]: 65%

Cc1cc(=O)oc2cc(SCc3n[nH]c4cccc(OCc5ccc(C(C)(C)C)cc5)c34)ccc12
MNEC [2]: 0.062 µM

Cc1cc(=O)oc2cc(SCc3n[nH]c4ccccc34)ccc12
MNEC (Nucleic Acid): 25 µM

c1ccc(-c2[nH]nc3ccccc23)cc1
MNEC (Nucleic Acid): 41 µM
